Where a SMILES comes first, the peptide text is derived from it. Bridges are numbered along the chain shown (N, C = ends). [ ]: non-standard residue; d: D form. The star is where a group is joined. Phe(4-COOH) = N[C@@H](Cc1ccc(C(=O)O)cc1)C(=O)O; Bip = N[C@@H](Cc1ccc(-c2ccccc2)cc1)C(=O)O; Phe(3-Me) = Cc1cccc(C[C@H](N)C(=O)O)c1; NH(CH2)12COOH = O=C(O)CCCCCCCCCCCCN*; Val(3-OH) = CC(C)(O)[C@H](N)C(=O)O; 4Pal = N[C@@H](Cc1ccncc1)C(=O)O; Cha = N[C@@H](CC1CCCCC1)C(=O)O; Cit = NC(=O)NCCC[C@H](N)C(=O)O; Carboxymethyl = O=C(O)C*; NMeA = CN[C@@H](C)C(=O)O; Orn = NCCC[C@H](N)C(=O)O; Aun = NCCCCCCCCCCC(=O)O; Dab = NCC[C@H](N)C(=O)O; Dap = NC[C@H](N)C(=O)O; AEEA = NCCOCCOCC(=O)O; Propargyl = C#CC*

In the experiment the target is T1, PD-1/PD-L1 interaction (PE-labeled human PD-L1-Ig binding to Jurkat cell line over-expressing human PD-1) (Homo sapiens, UniProt Q15116).
T1 construct: expressed in transfected cells; host or cells: Jurkat
T1 sequence (Q15116 25-288): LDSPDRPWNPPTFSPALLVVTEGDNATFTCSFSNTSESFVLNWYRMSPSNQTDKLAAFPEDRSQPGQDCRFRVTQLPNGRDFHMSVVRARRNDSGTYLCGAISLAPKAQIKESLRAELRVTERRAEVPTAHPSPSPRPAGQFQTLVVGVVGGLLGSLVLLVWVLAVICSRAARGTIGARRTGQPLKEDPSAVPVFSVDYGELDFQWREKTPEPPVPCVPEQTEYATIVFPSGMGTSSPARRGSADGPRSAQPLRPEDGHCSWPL
Description: Jurkat-PD-1 Cell Binding High-Content Screening Assay (CBA). The following applies: Jurkat-hPD-1 cells, PE-labeled PD-L1-Ig 20 nM final; read-out: Jurkat HPD1 PDL1 IC50. The gist of the method: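 Jurkat cells overexpressing human PD-1 (8×10^3/well, DMEM + 10% FCS) preincubated with compound 2 h at 37 °C, then PE-labelled human PD-L1-Ig (20 nM final) for 1 h. Cells fixed in paraformaldehyde with Hoechst 33342; bound PD-L1 quantified by high-content imaging.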
As usually defined, the IC50 is the concentration at which inhibition is half-maximal. Regarding `CC(C)C[C@@H]1NC(=O)[C@H](Cc2c[nH]c3ccccc23)NC(=O)[C@H](CC(=O)O)NC(=O)[C@H](Cc2ccncc2)NC(=O)[C@H](Cc2ccc(OCC(=O)O)cc2)NC(=O)CSC[C@@H](C(=O)N[C@@H](Cc2c[nH]cn2)C(=O)NCCCCCCCCCCC(=O)O)NC(=O)[C@H](CO)NC(=O)[C@H](C(C)C)NC(=O)[C@H](CC2CCCCC2)NC(=O)[C@H](CCN)NC(=O)[C@@H](CC(C)C)NC(=O)[C@H](C)N(C)C(=O)[C@H](C(C)C)NC(=O)[C@H](Cc2ccc(-c3ccccc3)cc2)NC1=O` [Example 1087] ({CH2CO}-Y(Carboxymethyl)[4Pal]DWL[Bip]V[NMeA][dL][Dab][Cha]VSCH[Aun]-OH; thioether N-14), the IC50 was 33.2 nM.

For the molecule `CC(C)C[C@@H]1NC(=O)[C@H](Cc2c[nH]c3ccccc23)NC(=O)[C@H](CC(=O)O)NC(=O)[C@H](Cc2ccncc2)NC(=O)[C@H](Cc2ccc(OCC(=O)O)cc2)NC(=O)CSC[C@@H](C(=O)N[C@@H](CN)C(=O)NCCOCCOCC(=O)NCCCCCCCCCCC(=O)O)NC(=O)[C@H](CO)NC(=O)[C@H](C(C)C)NC(=O)[C@H](CC2CCCCC2)NC(=O)[C@H](CCN)NC(=O)[C@@H](CC(C)C)NC(=O)[C@H](C)N(C)C(=O)[C@H](C(C)C)NC(=O)[C@H](Cc2ccc(-c3ccccc3)cc2)NC1=O` [Example 1088] ({CH2CO}-Y(Carboxymethyl)[4Pal]DWL[Bip]V[NMeA][dL][Dab][Cha]VSC[Dap][AEEA][Aun]-OH; thioether N-14), the half-maximal inhibitory concentration (IC50) was 7.1 nM.

Regarding `CC(C)C[C@@H]1NC(=O)[C@H](Cc2c[nH]c3ccccc23)NC(=O)[C@H](CC(=O)O)NC(=O)[C@H](Cc2ccncc2)NC(=O)[C@H](Cc2ccc(OCC(=O)O)cc2)NC(=O)CSC[C@@H](C(=O)N[C@@H](CCN)C(=O)NCCOCCOCC(=O)NCCCCCCCCCCC(=O)O)NC(=O)[C@H](CO)NC(=O)[C@H](C(C)C)NC(=O)[C@H](CC2CCCCC2)NC(=O)[C@H](CCN)NC(=O)[C@@H](CC(C)C)NC(=O)[C@H](C)N(C)C(=O)[C@H](C(C)C)NC(=O)[C@H](Cc2ccc(-c3ccccc3)cc2)NC1=O` [Example 1089] ({CH2CO}-Y(Carboxymethyl)[4Pal]DWL[Bip]V[NMeA][dL][Dab][Cha]VSC[Dab][AEEA][Aun]-OH; thioether N-14), the concentration for half-maximal inhibition (IC50) is 5.2 nM.

Regarding `CC(C)C[C@@H]1NC(=O)[C@H](Cc2c[nH]c3ccccc23)NC(=O)[C@H](CC(=O)O)NC(=O)[C@H](Cc2ccncc2)NC(=O)[C@H](Cc2ccc(OCC(=O)O)cc2)NC(=O)CSC[C@@H](C(=O)N[C@@H](CCCN)C(=O)NCCOCCOCC(=O)NCCCCCCCCCCC(=O)O)NC(=O)[C@H](CO)NC(=O)[C@H](C(C)C)NC(=O)[C@H](CC2CCCCC2)NC(=O)[C@H](CCN)NC(=O)[C@@H](CC(C)C)NC(=O)[C@H](C)N(C)C(=O)[C@H](C(C)C)NC(=O)[C@H](Cc2ccc(-c3ccccc3)cc2)NC1=O` [Example 1090] ({CH2CO}-Y(Carboxymethyl)[4Pal]DWL[Bip]V[NMeA][dL][Dab][Cha]VSC[Orn][AEEA][Aun]-OH; thioether N-14), the 50% inhibitory concentration (IC50) stood at 8.3 nM.

On to `CC(C)C[C@@H]1NC(=O)[C@H](Cc2c[nH]c3ccccc23)NC(=O)[C@H](CC(=O)O)NC(=O)[C@H](Cc2ccncc2)NC(=O)[C@H](Cc2ccc(OCC(=O)O)cc2)NC(=O)CSC[C@@H](C(=O)N[C@@H](CCCCN)C(=O)NCCOCCOCC(=O)NCCCCCCCCCCC(=O)O)NC(=O)[C@H](CO)NC(=O)[C@H](C(C)C)NC(=O)[C@H](CC2CCCCC2)NC(=O)[C@H](CCN)NC(=O)[C@@H](CC(C)C)NC(=O)[C@H](C)N(C)C(=O)[C@H](C(C)C)NC(=O)[C@H](Cc2ccc(-c3ccccc3)cc2)NC1=O` [Example 1091] ({CH2CO}-Y(Carboxymethyl)[4Pal]DWL[Bip]V[NMeA][dL][Dab][Cha]VSCK[AEEA][Aun]-OH; thioether N-14), for which the concentration for half-maximal inhibition (IC50) worked out at 6.8 nM.

Take `CC(C)C[C@@H]1NC(=O)[C@H](Cc2c[nH]c3ccccc23)NC(=O)[C@H](CC(=O)O)NC(=O)[C@H](Cc2ccncc2)NC(=O)[C@H](Cc2ccc(OCC(=O)O)cc2)NC(=O)CSC[C@@H](C(=O)N[C@@H](CCCNC(=N)N)C(=O)NCCOCCOCC(=O)NCCCCCCCCCCC(=O)O)NC(=O)[C@H](CO)NC(=O)[C@H](C(C)C)NC(=O)[C@H](CC2CCCCC2)NC(=O)[C@H](CCN)NC(=O)[C@@H](CC(C)C)NC(=O)[C@H](C)N(C)C(=O)[C@H](C(C)C)NC(=O)[C@H](Cc2ccc(-c3ccccc3)cc2)NC1=O` [Example 1092] ({CH2CO}-Y(Carboxymethyl)[4Pal]DWL[Bip]V[NMeA][dL][Dab][Cha]VSCR[AEEA][Aun]-OH; thioether N-14): the IC50 is 11.3 nM.

On to `CC(C)C[C@@H]1NC(=O)[C@H](Cc2c[nH]c3ccccc23)NC(=O)[C@H](CC(=O)O)NC(=O)[C@H](Cc2ccc(C(=O)O)cc2)NC(=O)[C@H](Cc2ccc(OCC(=O)O)cc2)NC(=O)CSC[C@@H](C(=O)NCCOCCOCC(=O)NCCCCCCCCCCC(=O)O)NC(=O)[C@H](CN)NC(=O)[C@H](C(C)C)NC(=O)[C@H](CC2CCCCC2)NC(=O)[C@H](CCN)NC(=O)[C@@H](CC(C)C)NC(=O)[C@H](C)N(C)C(=O)[C@H](C(C)C)NC(=O)[C@H](Cc2ccc(-c3ccccc3)cc2)NC1=O` [Example 1093] ({CH2CO}-Y(Carboxymethyl)[Phe(4-COOH)]DWL[Bip]V[NMeA][dL][Dab][Cha]V[Dap]C[AEEA][Aun]-OH; thioether N-14), for which the IC50 was found to be 14.6 nM.

`CC(C)C[C@@H]1NC(=O)[C@H](Cc2c[nH]c3ccccc23)NC(=O)[C@H](CC(=O)O)NC(=O)[C@H](Cc2ccc(C(=O)O)cc2)NC(=O)[C@H](Cc2ccc(OCC(=O)O)cc2)NC(=O)CSC[C@@H](C(=O)N[C@@H](CN)C(=O)NCCCCCCCCCCC(=O)O)NC(=O)[C@H](CCCNC(N)=O)NC(=O)[C@H](C(C)C)NC(=O)[C@H](CC2CCCCC2)NC(=O)[C@H](CCN)NC(=O)[C@@H](CC(C)C)NC(=O)[C@H](C)N(C)C(=O)[C@H](C(C)C)NC(=O)[C@H](Cc2ccc(-c3ccccc3)cc2)NC1=O` [Example 1098] ({CH2CO}-Y(Carboxymethyl)[Phe(4-COOH)]DWL[Bip]V[NMeA][dL][Dab][Cha]V[Cit]C[Dap][Aun]-OH; thioether N-14): the IC50 was 8.6 nM.

For the molecule `CC(C)C[C@@H]1NC(=O)[C@H](Cc2c[nH]c3ccccc23)NC(=O)[C@H](CC(=O)O)NC(=O)[C@H](Cc2ccc(C(=O)O)cc2)NC(=O)[C@H](Cc2ccc(OCC(=O)O)cc2)NC(=O)CSC[C@@H](C(=O)N[C@@H](CCCCN)C(=O)NCCCCCCCCCCC(=O)O)NC(=O)[C@H](CCCNC(N)=O)NC(=O)[C@H](C(C)C)NC(=O)[C@H](CC2CCCCC2)NC(=O)[C@H](CCN)NC(=O)[C@@H](CC(C)C)NC(=O)[C@H](C)N(C)C(=O)[C@H](C(C)C)NC(=O)[C@H](Cc2ccc(-c3ccccc3)cc2)NC1=O` [Example 1099] ({CH2CO}-Y(Carboxymethyl)[Phe(4-COOH)]DWL[Bip]V[NMeA][dL][Dab][Cha]V[Cit]CK[Aun]-OH; thioether N-14), the IC50 was 9.8 nM.

With `CC(C)C[C@@H]1NC(=O)[C@H](Cc2c[nH]c3ccccc23)NC(=O)[C@H](CC(=O)O)NC(=O)[C@H](Cc2ccc(C(=O)O)cc2)NC(=O)[C@H](Cc2ccc(OCC(=O)O)cc2)NC(=O)CSC[C@@H](C(=O)N[C@@H](CCCNC(=N)N)C(=O)NCCCCCCCCCCC(=O)O)NC(=O)[C@H](CCCNC(N)=O)NC(=O)[C@H](C(C)C)NC(=O)[C@H](CC2CCCCC2)NC(=O)[C@H](CCN)NC(=O)[C@@H](CC(C)C)NC(=O)[C@H](C)N(C)C(=O)[C@H](C(C)C)NC(=O)[C@H](Cc2ccc(-c3ccccc3)cc2)NC1=O` [Example 1100] ({CH2CO}-Y(Carboxymethyl)[Phe(4-COOH)]DWL[Bip]V[NMeA][dL][Dab][Cha]V[Cit]CR[Aun]-OH; thioether N-14), the half-maximal inhibitory concentration (IC50) was determined as 19.8 nM.

Take `CC(C)C[C@@H]1NC(=O)[C@H](Cc2c[nH]c3ccccc23)NC(=O)[C@H](CC(=O)O)NC(=O)[C@H](Cc2ccc(C(=O)O)cc2)NC(=O)[C@H](Cc2ccc(OCC(=O)O)cc2)NC(=O)CSC[C@@H](C(=O)NCCOCCOCC(=O)NCCCCCCCCCCC(=O)O)NC(=O)[C@H](CCCNC(N)=O)NC(=O)[C@H](C(C)C)NC(=O)[C@H](CC2CCCCC2)NC(=O)[C@H](CCN)NC(=O)[C@@H](CC(C)C)NC(=O)[C@H](C)N(C)C(=O)[C@H](Cc2ccc(O)cc2)NC(=O)[C@H](Cc2ccc(-c3ccccc3)cc2)NC1=O` [Example 1101] ({CH2CO}-Y(Carboxymethyl)[Phe(4-COOH)]DWL[Bip]Y[NMeA][dL][Dab][Cha]V[Cit]C[AEEA][Aun]-OH; thioether N-14): the IC50 was 48 nM.

As for `C#CCOC[C@@H]1NC(=O)[C@H](C(C)C)NC(=O)[C@H](CC2CCCCC2)NC(=O)[C@H](CCN)NC(=O)[C@@H](CC(C)C)NC(=O)[C@H](C)N(C)C(=O)[C@H](Cc2ccc(OCC(=O)O)cc2)NC(=O)[C@H](Cc2ccc(-c3ccccc3)cc2)NC(=O)[C@H](Cc2ccc(OCC(=O)O)cc2)NC(=O)[C@H](Cc2c[nH]c3ccccc23)NC(=O)[C@H](CC(=O)O)NC(=O)[C@H](Cc2ccncc2)NC(=O)[C@H](Cc2ccc(OCC(=O)O)cc2)NC(=O)CSC[C@@H](C(=O)N[C@@H](CCN)C(=O)NCCOCCOCC(=O)NCCCCCCCCCCC(=O)O)NC1=O` [Example 1103] ({CH2CO}-Y(Carboxymethyl)[4Pal]DWY(Carboxymethyl)[Bip]Y(Carboxymethyl)[NMeA][dL][Dab][Cha]VS(Propargyl)C[Dab][AEEA][Aun]-OH; thioether N-14), the 50% inhibitory concentration (IC50) was found to be 19 nM.

As to `Cc1cccc(C[C@@H]2NC(=O)[C@H](CC(=O)O)NC(=O)[C@H](Cc3ccc(C(=O)O)cc3)NC(=O)[C@H](Cc3ccncc3)NC(=O)CSC[C@@H](C(=O)N[C@@H](CCN)C(=O)NCCOCCOCC(=O)NCCCCCCCCCCCCC(=O)O)NC(=O)[C@H](CCC(=O)O)NC(=O)[C@H](C(C)(C)O)NC(=O)[C@H](CC3CCCCC3)NC(=O)[C@H](CCN)NC(=O)[C@@H](CC(C)C)NC(=O)[C@H](C)N(C)C(=O)[C@H](Cc3ccc(C(=O)O)cc3)NC(=O)[C@H](Cc3ccc(-c4ccccc4)cc3)NC(=O)[C@H](Cc3ccc(C(=O)O)cc3)NC2=O)c1` [Example 1104] ({CH2CO}-[4Pal][Phe(4-COOH)]D[Phe(3-Me)][Phe(4-COOH)][Bip][Phe(4-COOH)][NMeA][dL][Dab][Cha][Val(3-OH)]EC[Dab][AEEA]-{NH(CH2)12COOH}; thioether N-14), the 50% inhibitory concentration (IC50) came to 559 nM.

The values above are taken from patent US20260070945A1, “MACROCYCLIC IMMUNOMODULATORS” (Bristol-Myers Squibb Company, priority 2022, published 2026).
